Square brackets hold non-standard residues; d marks the D form. dDab = NCC[C@@H](N)C(=O)O; Orn = NCCC[C@H](N)C(=O)O; Dab = NCC[C@H](N)C(=O)O

This test has as its system Pseudomonas aeruginosa clinical isolate PAX11045. Put plainly: Murine pneumonia model, compound 1 in combination with azithromycin (Example 2). Type of test: in vivo. The method, then:
The efficacy and ED50 of the compound of formula (I) (“compound 1”) in combination with azithromycin was determined against Pseudomonas aeruginosa clinical isolate PAX11045 in a pneumonia model in mice. Colony counts in lung were determined at 20 hours post treatment.
Fresh overnight colonies of PAX11045 from a 5% Horse Blood Agar plate were suspended in 0.9% sterile saline to approximately 10^8 CFU/ml and further diluted to approximately 5×10^7 CFU/ml. Female mice (DBA/2, outbred, 17-23 g, Charles River) were anesthetized with 0.1 ml of Zoletil and inoculated via the nose with a pipette with 0.05 ml of the bacteria suspension containing approximately 10^6 CFU. 4 hours after inoculation, the mice were treated orally with 45 μl neurophen (20 mg ibuprofen/ml corresponding to approximately 30 mg/kg) as pain relief.
480 mg of azithromycin (Zitromax™, Pfizer) were dissolved in 4.8 ml 0.9% sterile saline to a concentration of 100 mg/ml and further diluted with saline to 5 mg/ml. The mice were treated subcutaneously with 0.2 ml in the neck region with a single dose at 3 hours post infection corresponding to 50 mg/kg on the basis of a mean animal weight of 20 g.
The mice were treated subcutaneously with 0.2 ml in the neck region with a single dose at 4 hours post infection with a dose calculation based on a mean animal weight of 20 g.
Colony counts were determined post inoculation at 4 hours (untreated mice) and 24 hours (treated and vehicle-only treated mice). Immediately after the mice were sacrificed, the lungs were collected and frozen at −20° C. After thawing, the organs were homogenized in 1 ml 0.9% saline. Each sample was then 10 fold diluted in saline and 20 μl spots were applied on blood agar plates. All agar plates were incubated 18-24 hours at 35° C. in ambient air.

The mark [1] stands for this setting: in presence of 50 mg/kg azithromycin, murine lungs.

For “cyclo(TWI[Dab][Orn][dDab][Dab]W[Dab][Dab]AS[dP]P) [compound 1]”, for the setting “5.5 mg/kg alone, lung, p<0.001”, the “effect on bacterial loads” value is on record as “significant effect on reducing the bacterial loads”. Also, the “CFU levels compared to vehicle treatment” value (combination of compound 1 (dose series) and azithromycin 50 mg/kg, lung, p<0.01-p<0.001) is on record as “concentration dependent significant reduction of the CFU levels”. For the same substance, the Top level (compound 1 s.c. in presence of 50 mg/kg azithromycin (s.c., 3 h post infection), murine lungs) was −0.10 log10 CFU/ml. For the same substance, under setting [1], the “1 log killing dose” value amounted to 1.2 mg/kg, the “2 log killing dose” value was 2.4 mg/kg, the Bottom level is given as −2.59 log10 CFU/ml and the Emax amounted to 2.49 log10 CFU/ml. Also, under setting [1], the Static dose was 0.63 mg/kg. Besides, the ED50 (in presence of fixed dose of 50 mg/kg azithromycin, murine lungs) is 1.74 mg/kg.

The values are drawn from patent publication US9814754B2, “Combinations with a backbone-cyclized peptide” (POLYPHOR AG, priority 2012, dated 2017).
